According to patent publication US11377416B2, “Crystalline forms of hydroxynorketamine” (SMALL PHARMA LTD, priority 2017, dated 2022):

Legend:
[1] = pKa analysis, potentiometric (pH-metric) titration; type: physicochemical; conditions: pH-metric triple titration, methanol-water co-solvent, pH 2.0-12.0, Yasuda-Shedlovsky extrapolation
Method: The sample pKa was determined using the potentiometric (pH-metric) technique following attempts to determine pKa via UV spectroscopic techniques.
UV-metric: The sample was initially titrated in a fast-UV triple titration between pH 2.0-12.0 at concentrations of 31-19 μM, under aqueous conditions. No evidence of any sample ionisation within the investigated pH range was inferred from the spectroscopic data obtained, meaning that any ionisable groups were remote from chromophores. Therefore, the sample was analysed using the pH-metric method.
pH-metric: The sample was subsequently titrated using the potentiometric technique to determine the non-UV active pKas. A triple titration was carried out under methanol-water co-solvent conditions from pH 2.0-12.0 at concentrations of 0.9-0.6 mM (the methanol mixing ratio varied from 53.0 to 33.3% w/w). No precipitation of the sample from solution was observed so the pKa was determined from the potentiometric data collected, by Yasuda-Shedlovsky extrapolation of the individual results obtained. pKa of 2R,6R-hydroxynorketamine was calculated as 6.51+/−0.02.

[2] = TG/DTA thermal analysis of crystal forms; type: physicochemical; conditions: heated 10° C./min from 20° C. to 300° C. under nitrogen
Method: Approximately 5 mg of material was weighed into an open aluminium pan and loaded into a simultaneous thermogravimetric/differential thermal analyser (TG/DTA) and held at room temperature. The sample was then heated at a rate of 10° C./min from 20° C. to 300° C. during which time the change in sample weight was recorded along with any differential thermal events (DTA). Nitrogen was used as the purge gas, at a flow rate of 300 cm^3/min.

[3] = comparison value for known crystal forms, conditions not given; cited from earlier work

| Structure (SMILES) | temperature above which the material degrades (TG/DTA) [2] | also measured |
| --- | --- | --- |
| N[C@@]1(c2ccccc2Cl)CCC[C@@H](O)C1=O [2R,6R-hydroxynorketamine, 2R,6R-2-(2-Chlorophenyl)-2-(amino)-6-hydroxycyclohexanone] |  | pKa [1]: 6.51+/−0.02 |
| NC1(c2ccccc2Cl)CCCC(O)C1=O.O=C(O)CC(O)C(=O)O [2R,6R-Hydroxynorketamine L-Malate, 2R,6R-hydroxynorketamine L-malate] | above 150 °C |  |
| N[C@@]1(c2ccccc2Cl)CCC[C@@H](O)C1=O.O=C(O)C(O)C(O)C(=O)O [2R,6R-Hydroxynorketamine L-Tartrate, 2R,6R-hydroxynorketamine L-tartrate] | above 157 °C |  |
| Cl.N[C@@]1(c2ccccc2Cl)CCC[C@@H](O)C1=O [2R,6R-hydroxynorketamine hydrochloride] |  | aqueous solubility of known crystal forms [3]: 25 mg/mL |
| NC1(c2ccccc2Cl)CCCC(O)C1=O.O=C(O)CC(O)(CC(=O)O)C(=O)O (stereo not drawn) [2R,6R-Hydroxynorketamine Citrate] | above 157 °C |  |
| NC1(c2ccccc2Cl)CCCC(O)C1=O.O=C(O)C=CC(=O)O.O=C(O)C=CC(=O)O (stereo not drawn) [2R,6R-Hydroxynorketamine Difumarate, 2R,6R-hydroxynorketamine difumarate] | above 159 °C |  |
| N[C@@]1(c2ccccc2Cl)CCC[C@@H](O)C1=O.O=C1CC[C@@H](C(=O)O)N1 [2R,6R-hydroxynorketamine L-pyroglutamate] | above 159 °C |  |
